# Reference: patent US9012489B2, “Phenyl-3-aza-bicyclo[3.1.0]hex-3-yl-methanones and the use thereof as medicament” (Boehringer Ingelheim International GmbH, priority 2011, dated 2015)
# pIC50: −log10 of the molar value.
# Target: T1, GlyT1 transporter (Homo sapiens, UniProt P48067)
# T1 construct: endogenously expressing the GlyT1 transporter; host or cells: SK-N-MC human neuroblastoma cells
# T1 sequence (P48067 1-706): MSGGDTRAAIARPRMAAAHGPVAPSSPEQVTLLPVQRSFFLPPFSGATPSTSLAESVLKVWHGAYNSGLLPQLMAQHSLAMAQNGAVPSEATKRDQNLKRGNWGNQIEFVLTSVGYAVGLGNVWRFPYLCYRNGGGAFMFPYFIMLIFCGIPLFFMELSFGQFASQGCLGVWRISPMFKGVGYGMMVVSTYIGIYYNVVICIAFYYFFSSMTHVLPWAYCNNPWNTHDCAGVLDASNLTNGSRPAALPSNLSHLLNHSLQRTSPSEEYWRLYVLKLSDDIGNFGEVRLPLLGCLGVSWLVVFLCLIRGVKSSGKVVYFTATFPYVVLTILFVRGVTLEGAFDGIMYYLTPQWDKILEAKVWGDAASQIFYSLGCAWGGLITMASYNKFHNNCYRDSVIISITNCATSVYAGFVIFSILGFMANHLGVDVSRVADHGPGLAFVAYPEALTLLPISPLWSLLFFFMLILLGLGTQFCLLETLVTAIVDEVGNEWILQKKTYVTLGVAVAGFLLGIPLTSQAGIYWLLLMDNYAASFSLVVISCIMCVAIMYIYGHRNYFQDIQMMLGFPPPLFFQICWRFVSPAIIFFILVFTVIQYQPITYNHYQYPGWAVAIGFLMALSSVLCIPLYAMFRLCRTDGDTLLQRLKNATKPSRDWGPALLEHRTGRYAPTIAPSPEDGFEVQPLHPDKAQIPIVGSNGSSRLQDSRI
# Test: GlyT1 assay: 3H-glycine uptake into SK-N-MC cells (Cytostar-T format)
# Format: cell-based
# Conditions: glycine uptake in human SK-N-MC cells endogenously expressing GlyT1; 500 nM glycine, 1% DMSO, signal recorded over 60 min
# Source text: Cells expressing either endogenously the GlyT1 transporter like JAR cells (human placental choriocarcinoma cells; e.g. WO 2008/002583) or SK-N-MC cells (human neuroblastoma cells; Depoortere et al., 2005. Neuropsychopharmacology 30:1963-1985) or primary neurons or cells which have been transfected with a plasmid encoding the cDNA of a functional GlyT1 transporter and stably or transiently express GlyT1 (e.g. WO 2006/08200) can be used to monitor glycine uptake in cells. Different protocols for determination of the glycine uptake into the cells described above can be applied in order to identify and rank compounds which interfere with glycine uptake in the selected cell.
# Compounds outlined in the examples below were characterized using human SK-N-MC cells (ATCC number HTB-10) endogenously expressing the GlyT1 transporter which is responsible for the uptake of glycine into these cells and the uptake of glycine into these cells is monitored using the Cytostar-T assay format (GE Healthcare, RPNQ0162) which is based on the radioactive glycine taken up by the cells and brought into proximity with the scintillant contained within the base of the plate. The radioactive decay is converted to a light signal based on the integration of the scintillation matrix into the assay plate. The uptake is recorded as kinetic and the slope of the measured counts over time is used to calculate IC50.
# In detail, SK-N-MC cells are seeded into 96-well Cytostar-T assay plates at a density of 200,000 cells/well and grown for 16-18 hours to confluence in growth medium as recommended by ATCC. Before starting the assay, cells are washed once with HBSS (Hank's buffered salt solution; Sigma, H8264) cont. 5 mM alanine (referred in here as HBSS/Ala) and afterwards the following reagents are added: • 1. 80 μl/well HBSS/Ala • 2. 20 μl/well of HBSS/Ala containing 6× the concentration of compound in 6% DMSO • 3. approx. 5-10 min incubation • 4. 20 μl/well 3 μM glycine (^3H-glycine (Perkin Elmer, NET004001MC, specific activity: 52 Ci/mmol; diluted 1:1 with unlabelled glycine) in HBSS/Ala.
# In the final assay, glycine concentration is 500 nM (250 nM derived from the ^3H-glycine Perkin Elmer, 250 nM unlabelled glycine), DMSO concentration is 1%.
# The assay plate is immediately after addition of the ^3H-glycine placed into a Micro-Beta Counter (Perkin Elmer) and the signal is recorded over 60 min.
# To calculate uptake, the slope in the linear range of the kinetics is determined using GraphPadPrism and for the different slopes at the selected concentrations IC50 are calculated by curve fitting using the software GraphPadPrism.
# Maximal glycine uptake in every experiment is determined by incubation of SK-N-MC cells with substrate but without inhibitor. Unspecific uptake of glycine by the cells is determined by incubating the cells with substrate and a reference GlyT1 inhibitor e.g. 10 μM RG-1678 (Pinard et al., 2010, J. Med. Chem. 53(12):4603-14).
# Compounds are diluted from 10 mM stocks and in general, for IC50 determination 8 compound concentrations are used.
row,pIC50,SMILES
1,7.21,"C[C@H](Oc1ccc(S(C)(=O)=O)cc1C(=O)N1CC2CC2(c2nc(C(F)(F)F)no2)C1)C(F)(F)F (mixture of isomers) [Example 36, [5-Methanesulfonyl-2-(2,2,2-trifluoro-1-methyl-ethoxy)-phenyl]-[1-(3-trifluoromethyl-[1,2,4]oxadiazol-5-yl)-3-aza-bicyclo[3.1.0]hex-3-yl]-methanone]"
2,6.79,"C[C@H](Oc1ccc(S(C)(=O)=O)cc1C(=O)N1CC2CC2(c2nc(C3CC3)no2)C1)C(F)(F)F (single isomer, unassigned) [Example 144, [1-(3-Cyclopropyl-[1,2,4]oxadiazol-5-yl)-3-aza-bicyclo[3.1.0]hex-3-yl]-[5-methanesulfonyl-2-(2,2,2-trifluoro-1-methyl-ethoxy)-phenyl]-methanone]"
3,8.05,"C[C@H](Oc1ccc(S(C)(=O)=O)cc1C(=O)N1CC2CC2(c2noc(C3(C(F)(F)F)CC3)n2)C1)C(F)(F)F (mixture of isomers) [Example 65, [5-Methanesulfonyl-2-(2,2,2-trifluoro-1-methyl-ethoxy)-phenyl]-{1-[5-(1-trifluoromethyl-cyclopropyl)-[1,2,4]oxadiazol-3-yl]-3-aza-bicyclo[3.1.0]hex-3-yl}-methanone]"
4,7.74,"C[C@H](Oc1ccc(S(C)(=O)=O)cc1C(=O)N1CC2CC2(c2noc(C(F)(F)F)n2)C1)C(F)(F)F (single isomer, unassigned) [Example 2, [5-Methanesulfonyl-2-(2,2,2-trifluoro-1-methyl-ethoxy)-phenyl]-[1-(5-trifluoromethyl-[1,2,4]oxadiazol-3-yl)-3-aza-bicyclo[3.1.0]hex-3-yl]-methanone]"
5,7.00,"C[C@H](Oc1ccc(S(C)(=O)=O)cc1C(=O)N1CC2CC2(c2ncco2)C1)C(F)(F)F (mixture of isomers) [Example 20, [5-Methanesulfonyl-2-(2,2,2-trifluoro-1-methyl-ethoxy)-phenyl]-(1-oxazol-2-yl-3-aza-bicyclo[3.1.0]hex-3-yl)-methanone]"
6,8.05,"C[C@@H](Oc1ccc(S(C)(=O)=O)cc1C(=O)N1CC2CC2(c2nnc(C3(C(F)(F)F)CC3)o2)C1)C(F)(F)F (mixture of isomers) [Example 148, [5-Methanesulfonyl-2-(2,2,2-trifluoro-1-methyl-ethoxy)-phenyl]-{1-[5-(1-trifluoromethyl-cyclopropyl)-[1,3,4]oxadiazol-2-yl]-3-aza-bicyclo[3.1.0]hex-3-yl}-methanone]"
7,7.07,"C[C@H](Oc1ccc(S(C)(=O)=O)cc1C(=O)N1CC2(C)CC2(c2noc(C(F)(F)F)n2)C1)C(F)(F)F (single isomer, unassigned) [Example 158, [5-Methanesulfonyl-2-(2,2,2-trifluoro-1-methyl-ethoxy)-phenyl]-[1-methyl-5-(5-trifluoromethyl-[1,2,4]oxadiazol-3-yl)-3-aza-bicyclo[3.1.0]hex-3-yl]-methanone]"
8,6.80,"C[C@H](Oc1ccc(S(C)(=O)=O)cc1C(=O)N1CC2CC2(c2nccc(C(F)(F)F)n2)C1)C(F)(F)F (single isomer, unassigned) [Example 17, [5-Methanesulfonyl-2-(2,2,2-trifluoro-1-methyl-ethoxy)-phenyl]-[1-(4-trifluoromethyl-pyrimidin-2-yl)-3-aza-bicyclo[3.1.0]hex-3-yl]-methanone]"
9,8.05,"C[C@@H](Oc1ccc(S(C)(=O)=O)cc1C(=O)N1CC2CC2(c2noc(C(F)(F)F)n2)C1)C(F)(F)F (single isomer, unassigned) [Example 4, [5-Methanesulfonyl-2-(2,2,2-trifluoro-1-methyl-ethoxy)-phenyl]-[1-(5-trifluoromethyl-[1,2,4]oxadiazol-3-yl)-3-aza-bicyclo[3.1.0]hex-3-yl]-methanone]"
10,8.15,"C[C@@H](Oc1ccc(S(C)(=O)=O)cc1C(=O)N1CC2CC2(c2noc(C3(C)CC3)n2)C1)C(F)(F)F (mixture of isomers) [Example 135, [5-Methanesulfonyl-2-(2,2,2-trifluoro-1-methyl-ethoxy)-phenyl]-{1-[5-(1-methyl-cyclopropyl)-[1,2,4]oxadiazol-3-yl]-3-aza-bicyclo[3.1.0]hex-3-yl}-methanone]"
11,7.00,"Cc1noc(C23CC2CN(C(=O)c2cc(S(C)(=O)=O)ccc2O[C@H](C)C(F)(F)F)C3)n1 (mixture of isomers) [Example 35, [5-Methanesulfonyl-2-(2,2,2-trifluoro-1-methyl-ethoxy)-phenyl]-[1-(3-methyl-[1,2,4]oxadiazol-5-yl)-3-aza-bicyclo[3.1.0]hex-3-yl]-methanone]"
12,7.77,"C[C@@H](Oc1ccc(S(C)(=O)=O)cc1C(=O)N1CC2CC2(c2noc(C(F)(F)F)n2)C1)C(F)(F)F (mixture of isomers) [Example 58, [5-Methanesulfonyl-2-(2,2,2-trifluoro-1-methyl-ethoxy)-phenyl]-[1-(5-trifluoromethyl-[1,2,4]oxadiazol-3-yl)-3-aza-bicyclo[3.1.0]hex-3-yl]-methanone]"
13,8.22,"C[C@@H](Oc1ccc(S(C)(=O)=O)cc1C(=O)N1CC2CC2(c2cc(C(F)(F)F)on2)C1)C(F)(F)F (single isomer, unassigned) [Example 50, [5-Methanesulfonyl-2-(2,2,2-trifluoro-1-methyl-ethoxy)-phenyl]-[1-(5-trifluoromethyl-isoxazol-3-yl)-3-aza-bicyclo[3.1.0]hex-3-yl]-methanone]"
14,7.01,"Cc1noc(C23CC2CN(C(=O)c2cc(S(C)(=O)=O)ccc2O[C@@H](C)C(F)(F)F)C3)n1 (mixture of isomers) [Example 34, [5-Methanesulfonyl-2-(2,2,2-trifluoro-1-methyl-ethoxy)-phenyl]-[1-(3-methyl-[1,2,4]oxadiazol-5-yl)-3-aza-bicyclo[3.1.0]hex-3-yl]-methanone]"
15,6.59,"CC(C)Oc1ccc(S(C)(=O)=O)cc1C(=O)N1CC2CC2(c2nc(C(F)(F)F)co2)C1 (single isomer, unassigned) [Example 111, (2-Isopropoxy-5-methanesulfonyl-phenyl)-[1-(4-trifluoromethyl-oxazol-2-yl)-3-aza-bicyclo[3.1.0]hex-3-yl]-methanone]"
16,7.80,"C[C@H](Oc1ccc(S(C)(=O)=O)cc1C(=O)N1CC2CC2(c2cccc(C(F)(F)F)n2)C1)C(F)(F)F (mixture of isomers) [Example 54, [5-Methanesulfonyl-2-(2,2,2-trifluoro-1-methyl-ethoxy)-phenyl]-[1-(6-trifluoromethyl-pyridin-2-yl)-3-aza-bicyclo[3.1.0]hex-3-yl]-methanone]"
17,8.52,"C[C@H](Oc1ccc(S(C)(=O)=O)cc1C(=O)N1CC2CC2(c2ncc(C(F)(F)F)o2)C1)C(F)(F)F (single isomer, unassigned) [Example 132, [5-Methanesulfonyl-2-(2,2,2-trifluoro-1-methyl-ethoxy)-phenyl]-[1-(5-trifluoromethyl-oxazol-2-yl)-3-aza-bicyclo[3.1.0]hex-3-yl]-methanone]"
18,7.14,"CC(C)Oc1ccc(S(C)(=O)=O)cc1C(=O)N1CC2CC2(c2nc(C3(C(F)(F)F)CC3)no2)C1 (racemic) [Example 154, (2-Isopropoxy-5-methanesulfonyl-phenyl)-{1-[3-(1-trifluoromethyl-cyclopropyl)-[1,2,4]oxadiazol-5-yl]-3-aza-bicyclo[3.1.0]hex-3-yl}-methanone]"
